Experimental data published in patent US20230404863A1, “MICRONEEDLE PATCH AND PREPARATION METHOD THEREFOR” (SUZHOU REVEDA MEDICAL BIOTECH CO., LTD., priority 2020, published 2023).

Test: Stability of astaxanthin in patch vs aqueous solution (UV spectrophotometer, color)
Assay type: physicochemical
Details: room temperature
Description: Astaxanthin and resveratrol are easily oxidized and are very unstable in water and in emulsions. Due to immiscibility of resveratrol with water, it was first hydrophilically modified, and its stability in patches and that in solutions was compared. The patches were made of astaxanthin and the hydrophilically modified resveratrol, and the solutions were aqueous solutions of astaxanthin and the hydrophilically modified resveratrol at the same concentrations.

Color of astaxanthin after 6 days (in aqueous solution): became much lighter
Structure (SMILES): CC1=C(/C=C/C(C)=C/C=C/C(C)=C/C=C/C=C(C)/C=C/C=C(C)/C=C/C2=C(C)C(=O)[C@@H](O)CC2(C)C)C(C)(C)C[C@H](O)C1=O [astaxanthin]
Content of astaxanthin after 6 days vs the beginning (in aqueous solution at the same concentration, without avoiding exposure to light): significantly lower than that at the beginning
